Assay results published in patent publication US5061794A, “Cephalosporin derivatives, and antibacterial agents” (priority 1986, dated 1991).
Read-outs that look alike come from different tables or passages of the source.

Tests used:
E. coli CSH(RE45) = experiment: microbe, parasite or virus in culture; type: cell-based; settings: Escherichia coli, 16 h, read-out: Minimum Inhibitory Concentration (MIC), *E. coli CSH(RE45), lactamase-producing strain; 10^6 CFU/ml
In short: (§1)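 First, strains were cultured overnight in Mueller Hinton broth. Next, one loopful went onto drug-containing Mueller Hinton agar (10^6 CFU/ml). Finally, after 37° C. incubation for 16 hours, MIC was determined in μg/ml.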

E. coli CSH2 (RK1) = experiment: microbe, parasite or virus in culture; type: cell-based; settings: Escherichia coli, 16 h, read-out: Minimum Inhibitory Concentration (MIC), *E. coli CSH2 (RK1), lactamase-producing strain; 10^6 CFU/ml
In short: as §1

E. cloacae 963 = experiment: in vitro antibacterial activity, agar plate dilution method (MIC); type: cell-based; settings: 10^6 CFU/ml
In short: as §1

E. cloacae Nek 39 = experiment: as above; type: cell-based; settings: Enterobacter cloacae, NEK39, 16 h, read-out: Minimum Inhibitory Concentration (MIC), *E. cloacae Nek 39, lactamase-producing strain; 10^6 CFU/ml
In short: as §1

E. coli GN5482 = experiment: as above; type: cell-based; settings: Escherichia coli, GN5482, 16 h, read-out: Minimum Inhibitory Concentration (MIC)
In short: as §1

E. coli NIHJ JC2 = experiment: as above; type: cell-based; settings: Escherichia coli, NIHJJC2, 16 h, read-out: Minimum Inhibitory Concentration (MIC), E. coli NIHJ JC2, 10^6 CFU/ml, 37° C.
In short: as §1

K. oxytoca GN10650 = experiment: as above; type: cell-based; settings: Klebsiella oxytoca, GN10650, 16 h, read-out: Minimum Inhibitory Concentration (MIC), *K. oxytoca GN10650, lactamase-producing strain; 10^6 CFU/ml
In short: as §1

K. pneumoniae No. 42 = experiment: as above; type: cell-based; settings: Klebsiella pneumoniae, NO.42, 16 h, read-out: Minimum Inhibitory Concentration (MIC), *K. pneumoniae No. 42, lactamase-producing strain; 10^6 CFU/ml
In short: as §1

K. pneumoniae PCI-602 = experiment: as above; type: cell-based; settings: Klebsiella pneumoniae, PCI602, 16 h, read-out: Minimum Inhibitory Concentration (MIC), K. pneumoniae PCI-602; 10^6 CFU/ml
In short: as §1

M. morganii GN5407 = experiment: as above; type: cell-based; settings: Morganella morganii, GN5407, 16 h, read-out: Minimum Inhibitory Concentration (MIC), *M. morganii GN5407, lactamase-producing strain; 10^6 CFU/ml
In short: as §1

P. vulgaris HX-19 = experiment: as above; type: cell-based; settings: Proteus vulgaris, HX19, 16 h, P. vulgaris HX-19; 10^6 CFU/ml; read-out: Minimum Inhibitory Concentration (MIC)
In short: as §1

P. vulgaris No. 33 = experiment: as above; type: cell-based; settings: Proteus vulgaris, NO.33, 16 h, read-out: Minimum Inhibitory Concentration (MIC), *P. vulgaris No. 33, lactamase-producing strain; 10^6 CFU/ml
In short: as §1

S. aureus 209P NIHJ-JC1 = experiment: as above; type: cell-based; settings: Staphylococcus aureus, 16 h
In short: as §1

S. marcescens IAM 1184 = experiment: as above; type: cell-based; settings: Serratia marcescens, IAM1184, 16 h, read-out: Minimum Inhibitory Concentration (MIC)
In short: as §1

S. marcescens No. 16-2 = experiment: as above; type: cell-based; settings: Serratia marcescens, NO.162, 16 h, read-out: Minimum Inhibitory Concentration (MIC), *S. marcescens No. 16-2, lactamase-producing strain; 10^6 CFU/ml
In short: as §1

Ps. aeruginosa AK 109 = experiment: as above; type: cell-based, Pseudomonas aeruginosa; settings: Pseudomonas aeruginosa, AK109, 16 h, read-out: Minimum Inhibitory Concentration (MIC)
In short: as §1

Ps. aeruginosa AKR17 = experiment: as above; type: cell-based, Pseudomonas aeruginosa; settings: Pseudomonas aeruginosa, 16 h; Ps. aeruginosa AKR17; 10^6 CFU/ml; read-out: Minimum Inhibitory Concentration (MIC)
In short: as §1

Ps. aeruginosa IF03445 = experiment: as above; type: cell-based, Pseudomonas aeruginosa; settings: Pseudomonas aeruginosa, 10^6 CFU/ml
In short: as §1

Ps. cepacia 23 = experiment: as above; type: cell-based, Pseudomonas cepacia; settings: Burkholderia cepacia, 16 h; Ps. cepacia 23; 10^6 CFU/ml; read-out: Minimum Inhibitory Concentration (MIC)
In short: as §1

A. calcoaceticus No. 4 = experiment: as above; type: cell-based, Acinetobacter calcoaceticus; settings: Acinetobacter calcoaceticus, NO.4, 16 h, read-out: Minimum Inhibitory Concentration (MIC), A. calcoaceticus No. 4; 10^6 CFU/ml
In short: as §1

[1] = Enterobacter cloacae, 16 h, E. cloacae 963, read-out: Minimum Inhibitory Concentration (MIC)
[2] = S. marcescens IAM 1184, 10^6 CFU/ml
[3] = IF03445, 16 h, read-out: Minimum Inhibitory Concentration (MIC), Ps. aeruginosa IF03445
[4] = read-out: Minimum Inhibitory Concentration (MIC), S. aureus 209P NIHJ-JC1, 10^6 CFU/ml, 37° C., 16 hours
[5] = Ps. aeruginosa AK 109, 10^6 CFU/ml
[6] = 16 h, Ps. aeruginosa IF03445, read-out: Minimum Inhibitory Concentration (MIC)

SMILES	MIC (E. coli CSH(RE45))	MIC (E. coli CSH2 (RK1))	MIC (E. cloacae 963; [1])	MIC (E. cloacae Nek 39)	MIC (E. coli GN5482)	MIC (E. coli NIHJ JC2)	MIC (K. oxytoca GN10650)	MIC (K. pneumoniae No. 42)	MIC (K. pneumoniae PCI-602)	MIC (M. morganii GN5407)	MIC (P. vulgaris HX-19)	MIC (P. vulgaris No. 33)	MIC (S. marcescens IAM 1184; [2])	MIC (S. marcescens No. 16-2)	MIC (Ps. aeruginosa AKR17)	MIC (Ps. aeruginosa IF03445; [3])	MIC (Ps. cepacia 23)	MIC (A. calcoaceticus No. 4)	MIC (S. aureus 209P NIHJ-JC1; [4])	MIC (Ps. aeruginosa AK 109; [5])	also measured
CO/N=C(\C(=O)N[C@@H]1C(=O)N2C(C(=O)O)=C(CSc3nnc(-c4ccc(OC(C)=O)c(OC(C)=O)c4)o3)CS[C@H]12)c1csc(N)n1 [Ex. 4, sodium 3-[5-(3,4-diacetoxyphenyl)-1,3,4-oxadiazol-2-yl]thiomethyl-7β-[2-(2-thiazol-4-yl)-2-methoxyiminoacetamido]-3-cephem-4carboxylate]	0.78 µg/mL	< 0.006 µg/mL	< 0.006 µg/mL	0.05 µg/mL	0.39 µg/mL	0.05 µg/mL	0.39 µg/mL	0.025 µg/mL	< 0.006 µg/mL	0.0125 µg/mL	< 0.006 µg/mL	0.0125 µg/mL	< 0.006 µg/mL	1.56 µg/mL	> 100 µg/mL	0.78 µg/mL	0.1 µg/mL	0.1 µg/mL			MIC (S. aureus 209P NIHJ-JC1; read-out: Minimum Inhibitory Concentration (MIC)): 3.12 µg/mL; MIC (Ps. aeruginosa AK 109): 0.39 µg/mL
CCO/N=C(\C(=O)N[C@@H]1C(=O)N2C(C(=O)O)=C(CSc3nnc(-c4ccc(O)c(O)c4)o3)CS[C@H]12)c1csc(N)n1 [Ex. 5, sodium 7β-[2-(2-aminothiazol-4-yl)-2-ethoxyiminoacetamido]-3-[5-(3,4-dihydroxyphenyl)-1,3,4-oxadiazol-2-yl]thiomethyl-3-cephem-4-carboxylate]	0.0125 µg/mL	0.0125 µg/mL		0.1 µg/mL	0.39 µg/mL	0.05 µg/mL	0.78 µg/mL	0.05 µg/mL	< 0.006 µg/mL	0.025 µg/mL	< 0.006 µg/mL	0.025 µg/mL		0.78 µg/mL	> 100 µg/mL	0.39 µg/mL	< 0.006 µg/mL	0.1 µg/mL	0.78 µg/mL		MIC (E. cloacae 963; Enterobacter cloacae, 963, 16 h, read-out: Minimum Inhibitory Concentration (MIC), E. cloacae 963): 0.0125 µg/mL; MIC (S. marcescens IAM 1184): 0.0125 µg/mL; MIC (Ps. aeruginosa AK 109): 0.39 µg/mL
CCO/N=C(\C(=O)N[C@@H]1C(=O)N2C(C(=O)O)=C(CSc3nnc(-c4ccc(OC(C)=O)c(OC(C)=O)c4)o3)CS[C@H]12)c1csc(N)n1 [Ex. 6, sodium 3-[5-(3,4-diacetoxyphenyl)-1,3,4-oxadiazol-2-yl]thiomethyl-78-[2-(2-aminothiazol-4-yl)-2-ethoxyiminoacetamido]-3-cephem-4-carboxylate]	0.78 µg/mL	0.0125 µg/mL	< 0.006 µg/mL	0.05 µg/mL	0.39 µg/mL	0.05 µg/mL	0.39 µg/mL	0.025 µg/mL	< 0.006 µg/mL	0.0125 µg/mL	< 0.006 µg/mL	0.0125 µg/mL	< 0.006 µg/mL	0.78 µg/mL	> 100 µg/mL		0.05 µg/mL	0.1 µg/mL	1.56 µg/mL	0.1 µg/mL	MIC (Ps. aeruginosa IF03445; [6]): 0.2 µg/mL
CC(C)O/N=C(\C(=O)N[C@@H]1C(=O)N2C(C(=O)O)=C(CSc3nnc(-c4ccc(O)c(O)c4)o3)CS[C@H]12)c1csc(N)n1 [Ex. 7, sodium 78-[2-(2-aminothiazol-4-yl)-2-isopropoxyiminoacetamido]-3-[5-(3,4-dihydroxyphenyl)-1,3,4-oxadiazol-2-yl]thiomethyl-3-cephem-4-carboxylate]	1.56 µg/mL	< 0.006 µg/mL	0.0125 µg/mL	0.05 µg/mL	0.39 µg/mL	0.1 µg/mL	0.1 µg/mL	0.025 µg/mL	< 0.006 µg/mL	0.0125 µg/mL	< 0.006 µg/mL	0.0125 µg/mL	0.025 µg/mL	1.56 µg/mL	50 µg/mL	0.39 µg/mL	< 0.006 µg/mL	0.1 µg/mL	1.56 µg/mL	0.2 µg/mL	
C=CCO/N=C(\C(=O)N[C@@H]1C(=O)N2C(C(=O)O)=C(CSc3nnc(-c4ccc(O)c(O)c4)o3)CS[C@H]12)c1csc(N)n1 [Ex. 8, sodium 7β-[2-allyloxyimino-2-(2-aminothiazol-4-yl)acetamido]-3-[5-(3,4-dihydroxyphenyl)-1,3,4-oxadiazol-2-yl]thiomethyl-3-cephem-4carboxylate]	0.78 µg/mL	< 0.006 µg/mL	< 0.006 µg/mL	0.05 µg/mL	0.39 µg/mL	0.1 µg/mL	3.12 µg/mL	0.05 µg/mL	< 0.006 µg/mL	0.0125 µg/mL	< 0.006 µg/mL	0.0125 µg/mL	0.0125 µg/mL	1.56 µg/mL	100 µg/mL		0.025 µg/mL	0.1 µg/mL	0.78 µg/mL	0.2 µg/mL	MIC (Ps. aeruginosa IF03445; [6]): 0.2 µg/mL
